In data set [1] the test system is p21 protein. Put plainly: p21 protein staining in HepG2 cells. Format: cell-based, human. The following applies: Etoposide alone or together with DNAzyme (FIGS. 15A-B). How it is done: (§1) Alternatively, cells were fixed with 4% Formaldehyde for 15 minutes, permeabilized in 0.2% […] for 5 minutes and blocked with 2% bovine serum albumin (BSA) for 30 min in room temperature. Cells were then incubated with a primary or with a conjugated antibody over-night or for 3 hours respectively. For unconjugated antibodies, a corresponding fluorescently-labelled secondary antibody was added for 1 hour, followed by Hoechst counterstaining. Cells were washed with PBS three times following each step. Images were acquired using Nikon Eclipse Ti2 microscope at ×10 magnification.
(§2) Antibodies were diluted in blocking solution as indicated below: 53BP1 antibody (Novus biologicals NB100-304, 1:800), Phospho-histone H2AX antibody (Cell signaling #2577, 1:800), p21 Waf1/Cip1 antibody (Cell signaling #8865, 1:500), p16 antibody (Santa Cruz sc-56330, 1:200), Alexa Fluor-488 goat anti mouse (Thermo Fisher A11029, 1:1000).

The next data set deals with cancer cells (A549). Kind of data set: Dose response on A549 cancer cells. Type of data set: cell-based. The following applies: A549, scramble versus DNAzyme 1670 (FIG. 16B). The source says: PANC-1 cells were maintained in DMEM medium supplemented with 10% fetal bovine serum, 1% penicillin-streptomycin and 1% sodium pyruvate. HCT116 cells were maintained in McCoy's 5A medium supplemented with 10% fetal bovine serum and 1% penicillin-streptomycin. A549 cells were maintained in F-12K Medium supplemented with 10% fetal bovine serum and 1% penicillin-streptomycin. HepG2 cell were maintained Eagle's Minimum Essential Medium, supplemented in 10% fetal bovine serum, 1% penicillin-streptomycin and 1% sodium pyruvate. All cancer cell lines were incubated in 5% C02 at 37° C.
Cancer cell lines were seeded in 96 well plates 24 hours before treatment. Chemotherapies were applied at indicated concentrations either alone or as combination with DNAzyme-lipofectamine complex. 72 hours following treatment, cell viability was measured using Prestoblue® reagent. Chemotherapies were diluted in cell medium to the indicated concentrations. 24 hours following seeding, culture medium was replaced with chemotherapy containing medium, immediately followed by transfection of DNAzyme as described above. 72 hours following treatment, cell viability was measured using Prestoblue® reagent.

A short description of data set [2]: DNAzyme stability analysis in BALF. Type of data set: in vitro ADME, mice. How it is done: (§3) DNAzyme stability was assessed by incubation with PBS, plasma and BALF (Bronchoalveolar Lavage Fluid). A comparison between unmodified and 3′Inverted dT modification was made. Following incubation for the indicated time points, samples were analyzed using gel electrophoresis. Quantification compared to time 0 was performed using Image Lab software (Bio Rad).

The nature of data set [3]: DNAzyme stability analysis in serum. Type of data set: in vitro ADME. How it is done:
as §3

Data set [4] concerns p21 protein. Kind of data set: Immunofluorescence of p21 protein in senescent cells. Type of data set: cell-based, human. To be noted: 48 hour treatment, 1000 nM, compared to control scramble (FIG. 5G). How it is done:
48 hours following transfection. IMR-90 cells were fixed by PFA 4% following the indicated treatments. Cells were blocked and incubated with antibodies against human p21 (CST) in blocking solution. Cells were then incubated with Dylight-549-conjugated secondary antibody (Jackson ImmunoResearch) and counterstained with DAPI (Sigma). Images were acquired using Nikon Eclipse Ti2 microscope at ×10 magnification.
as §1, §2

Where [5] appears, read: unmodified DNAzyme, from the start of incubation (FIG. 13A).

“Also recorded” adds a separate entry of the source.

For “DNAzyme 1670: SEQ ID NO: 54: GGGAAAGGAggctagctacaacgaAAGGGGGAG (DNA GGGAAAGGAGGCTAGCTACAACGAAAGGGGGAG; DNA, backbone and methylation of C not given here)”, the “p21 protein immunofluorescent staining in HepG2 cells” value in the data set on p21 protein [1] was “significant decrease in staining; also recorded: p21 upregulation is blocked”. In addition, in the data set on cancer cells (A549), the “senolytic effect, dose response” value was “senolytic effect in a wide range of doses; also recorded: effective at much lower concentration”. Besides, the “stability in BALF of diseased (bleomycin) mice compared to naive BALF” value in data set [2] (FIG. 13C) is on record as “lower”. Also, the “start of reduction in size (below full length) in BALF” value in data set [2] (setting [5]) was 24 h. Moreover, in data set [2] (with 3′ inverted dT modification versus unmodified (FIGS. 7B, 13C)), the “time to degradation / stability in BALF” value is on record as “significantly increased”. The “time to complete degradation in serum” value in data set [3] (setting [5]) is 48 h. Further, in data set [3] (with 3′ inverted dT modification versus unmodified (FIG. 13B)), the “time to degradation in serum” value is “significantly increased”. The p21 protein levels entry in the data set on p21 protein [4] is given as “significantly reduced”.

Values taken from patent US11879140B2, “P21 mRNA targeting DNAzymes” (1E Therapeutics Ltd., priority 2020, dated 2024).
